Data on 13 compounds can be found in patent US20220251134A1, “2,4,7-SUBSTITUTED-7-DEAZA-2'-DEOXY-2'-FLUOROARABINOSYL NUCLEOSIDE AND NUCLEOTIDE PRO-DRUGS AND USES THEREOF” (Southern Research Institute, priority 2019, published 2022).

Each structure is given as a SMILES string. Read-outs that look alike come from different tables or passages of the source.

The subject of series [1] is HBV in HepG2 2.2.15 cells. Put plainly: HepG2 2.2.15 cell-based HBV replication assay (HBV virus yield, extracellular HBV DNA by real-time PCR). Set-up: species or system HBV wild-type strain ayw1. The conditions noted are these: for EC50 / EC90: Hepatitis B virus. As to the method: (§1) The HepG2 2.2.15 cell line is a stable human hepatoblastoma cell line that contains two copies of the HBV wild-type strain ayw1 genome and constitutively produces high levels of HBV. Cells were sub-cultured twice a week in Dulbecco's Modified Eagle's Medium (DMEM) supplemented with 10% FBS, 380 μg/mL G418, 2.0 mM L-Glutamine, 100 units/mL Penicillin, and 100 μg/mL Streptomycin. Total cell number and percent viability determinations were performed using a hemacytometer and trypan blue dye exclusion prior to each experiment set-up.
The primary anti-HBV assay was performed as previously described (Korba and Milman (1991) Antiviral Res. 15: 217-228; Korba and Gerin (1992) Antiviral Res. 19: 55-70) with modifications to use real-time PCR (TaqMan-based) to measure extracellular HBV DNA virion-associated released from HepG2 2.2.15 cells. Antiviral compounds blocking any late step of viral replication such as transcription, translation, pre-genome encapsidation, reverse transcription, particle assembly and release can be identified and characterized using this cell line. Briefly, HepG2 2.2.15 cells were seeded in 96-well microtiter plates at 1.5×10^4 cells/well in Dulbecco's Modified Eagle's Medium supplemented with 2% FBS, 2.0 mM L-Glutamine, 100 units/mL Penicillin, and 100 μg/mL Streptomycin. […] Three days post treatment with test article (DPV), cell culture medium was replaced with fresh medium containing the appropriately diluted test compounds. Six days following the initial administration of the test compounds, the cell culture supernatant was collected, treated with pronase and then used in a real-time TaqMan-based PCR assay. The PCR-amplified HBV DNA was detected by measuring fluorescent signal resulting from the exonucleolytic degradation of a quenched fluorescent probe molecule that hybridizes to the amplified HBV DNA.
(In general: Quantitative PCR measures a nucleic acid by following its amplification.)

A further series deals with HepG2 2.2.15 cells. Put plainly: Evaluation of cell viability (MTS) in HepG2 2.2.15 cells. The class given is cell-based, human. The conditions noted are these: Table 3; HBV virus yield assay. As to the method: as §1, with “set-up. Cell viability was always greater than 95% for experiment set-ups.” for “set-up.”
(§2) At experiment conclusion, MTS reagent (CellTiter®96 Reagent, Promega) reagent was added to culture wells (96 well microtiter plates) and permitted to incubate with cells for 2-4 hours at 37° C., 5% CO2. Each cell culture well was measured for MTS reagent reduction (color change, 490/650 nm) using a SpectraMax i3 plate reader (Molecular Devices).

Experiment in series [2]: as above
It counts as cell-based, human. The conditions noted are these: human. As to the method:
as §1, with “set-up. Cell viability was always greater than 95% for experiment set-ups.” for “set-up.”
as §2

The test system of another series is HSV-1 Strain HF. Put plainly: Antiviral activity against HSV-1 Strain HF in Vero cells. It counts as cell-based.
Series [3] is described as follows: Cytotoxicity (TC50) in Vero cells. The class given is cell-based. The conditions noted are these: African green monkey, Table 2.
[4] abbreviates: HepG2 2.2.15, Table 1, HBV in HepG2 2.2.15 cells, read-out: EC50.
Setting [5] is: HepG2 2.2.15, Table 3, HBV virus yield assay, read-out: EC50.
Setting [6] is: Table 1, HBV in HepG2 2.2.15 cells, read-out: EC90.
The mark [7] stands for this setting: HepG2 2.2.15, Table 3, HBV virus yield assay, read-out: EC90.
[8] abbreviates: HepG2 2.2.15 cells, Table 3, HBV virus yield assay.
Where [9] appears, read: Table 1, HBV in HepG2 2.2.15 cells.

What is called EC50 is the concentration at which the effect is half-maximal. As usually defined, the EC90 is the concentration at which the effect reaches the 90% level. The CC50 is the concentration giving 50% cytotoxicity. Consider `Nc1ccn([C@@H]2CS[C@H](CO)O2)c(=O)n1` [Compound 3TC, Lamivudine, reference compound], for which the EC50 in series [1] (setting [4]) and in series [1] (setting [5]) was 29 nM throughout. Moreover, the EC90 in series [1] (setting [6]) is 511 nM. The CC50 in the series on HepG2 2.2.15 cells is over 2000 nM; in series [2] (Table 1, HepG2 2.2.15 cells) it was over 2000 nM.

Turning to `CCCCCCCC/C=C\CCCCCCCC(=O)Nc1nc(Cl)nc2c1ccn2[C@@H]1O[C@H](CO)[C@@H](O)[C@@H]1F` [Compound 12b, N-(2-chloro-7-((2R,3S,4R,5R)-3-fluoro-4-hydroxy-5-(hydroxymethyl)tetrahydrofuran-2-yl)-7H-pyrrolo[2,3-d]-pyrimidin-4-yl)oleamide], in series [1] (setting [5]), the 50% effective concentration (EC50) was 130 nM. Also, in series [1] (setting [7]), the EC90 was over 10000 nM. The compound also showed a CC50 in series [2] (setting [8]) of over 10000 nM.

As to `CCCCCCCCCCCCCCCCCC(=O)Nc1nc(Cl)nc2c1ccn2[C@@H]1O[C@H](CO)[C@@H](O)[C@@H]1F` [Compound 12c, N-(2-chloro-7-((2R,3S,4R,5R)-3-fluoro-4-hydroxy-5-(hydroxymethyl)tetrahydrofuran-2-yl)-7H-pyrrolo[2,3-d]pyrimidin-4-yl)stearamide], the half-maximal effective concentration (EC50) in series [1] (setting [5]) was 530 nM. Also, the 90% effect concentration (EC90) in series [1] (setting [7]) was over 10000 nM. Besides, the CC50 in series [2] (setting [8]) is over 10000 nM.

On to `CC(C)OC(=O)[C@H](C)NP(=O)(OC[C@H]1O[C@@H](n2ccc3c(N)nc(Cl)nc32)[C@@H](F)[C@@H]1O)Oc1ccccc1` (mixture of isomers) [Compound 9b, isopropyl ((((2R,3R,4S,5R)-5-(4-amino-2-chloro-7H-pyrrolo[2,3-d]pyrimidin-7-yl)-4-fluoro-3-hydroxytetrahydrofuran-2-yl)methoxy)(phenoxy)phosphoryl)-L-alaninate], for which, in series [1] (HepG2 2.2.15), a half-maximal response (EC50) required 90 nM and the 90% effect level (EC90) was put at 1050 nM. Moreover, the CC50 in series [2] (Table 3, HBV virus yield assay) was over 10000 nM.

In series [1] (HepG2 2.2.15), `CCOC(=O)[C@H](C)NP(=O)(OC[C@H]1O[C@@H](n2ccc3c(N)nc(Cl)nc32)[C@@H](F)[C@@H]1O)Oc1ccccc1` (mixture of isomers) [Compound 9e, ethyl ((((2R,3R,4S,5R)-5-(4-amino-2-chloro-7H-pyrrolo[2,3-d]pyrimidin-7-yl)-4-fluoro-3-hydroxytetrahydro-furan-2-yl)methoxy)-(phenoxy)phosphoryl)-L-alaninate] came in with an EC50 of 140 nM and an EC90 of over 10000 nM. In series [2] (Table 3, HBV virus yield assay), the cytotoxic concentration (CC50) was over 10000 nM.

As for `CCC(CC)COC(=O)[C@H](C)NP(=O)(OC[C@H]1O[C@@H](n2ccc3c(N)nc(Cl)nc32)[C@@H](F)[C@@H]1O)Oc1ccccc1` (stereo partly drawn) [Compound 9a, 2-ethylbutyl ((((2R,3R,4S,5R)-5-(4-amino-2-chloro-7H-pyrrolo[2,3-d]pyrimidin-7-yl)-4-fluoro-3-hydroxytetrahydrofuran-2-yl)methoxy)(phenoxy)phosphoryl)-L-alaninate], in series [1] (HepG2 2.2.15), the EC50 worked out at 160 nM and the 90% effect concentration (EC90) amounted to 1580 nM. In addition, in series [2] (Table 3, HBV virus yield assay), the cytotoxic concentration (CC50) is over 10000 nM.

The IC50 is the concentration that inhibits the measured activity by half. The low end stands for greater potency in that assay, the high end for weaker potency in that assay. Regarding `Nc1nc(Cl)nc2c1ccn2[C@@H]1O[C@H](CO)[C@@H](O)[C@@H]1F` [Compound 5, (2R,3R,4S,5R)-5-(4-amino-2-chloro-7H-pyrrolo[2,3-d]pyrimidin-7-yl)-4-fluoro-2-(hydroxymethyl)tetrahydrofuran-3-ol], in the series on HSV-1 Strain HF (Human alphaherpesvirus 1, Table 2), half-maximal inhibition (IC50) was put at 650 nM. Moreover, in the series with HSV-1 Strain HF (Table 2), the “Selectivity Index (SI50) (TC50/IC50)” value is over 15.4. For the same compound, the CC50 in series [3] was over 10000 nM; in the series on HepG2 2.2.15 cells, over 10000 nM; in series [2] (Table 1, HepG2 2.2.15 cells) it was over 10000 nM. Also, the 50% effective concentration (EC50) in series [1] (setting [4]) amounted to 70 nM; in series [1] (setting [5]), 60 nM. For the same compound, in series [1] (setting [6]), the 90% effect concentration (EC90) turned out to be 1280 nM. The Activity entry in series [1] (setting [9]) is “Hi”. Also, the “Selectivity Index (SI50) (CC50/EC50)” value in series [1] (setting [9]) was over 167.

For `CCCCCCCCCCCC(=O)Nc1nc(Cl)nc2c1ccn2[C@@H]1O[C@H](CO)[C@@H](O)[C@@H]1F` [Compound 12a, N-(2-chloro-7-((2R,3S,4R,5R)-3-fluoro-4-hydroxy-5-(hydroxymethyl)tetrahydrofuran-2-yl)-7H-pyrrolo[2,3-d]pyrimidin-4-yl)dodecanamide], in series [1] (setting [5]), the EC50 is 80 nM. Moreover, the EC90 in series [1] (setting [7]) worked out at 950 nM. For the same compound, the CC50 in series [2] (setting [8]) was over 10000 nM.

In series [1] (HepG2 2.2.15), `C[C@H](NP(=O)(OC[C@H]1O[C@@H](n2ccc3c(N)nc(Cl)nc32)C(F)C1O)Oc1ccccc1)C(=O)OCc1ccccc1` (single isomer, unassigned) [Compound 9c] registered a concentration giving a half-maximal response (EC50) of 240 nM and an EC90 of over 10000 nM. The same compound came in with a cytotoxic concentration (CC50) in series [2] (Table 3, HBV virus yield assay) of over 10000 nM.

Consider `COC(=O)[C@H](C)NP(=O)(OC[C@H]1O[C@@H](n2ccc3c(N)nc(Cl)nc32)[C@@H](F)[C@@H]1O)Oc1ccccc1` (single isomer, unassigned) [Compound 9f], for which, in series [1] (HepG2 2.2.15), the EC50 is 240 nM and the 90% effect concentration (EC90) was over 10000 nM. The same compound came in with a half-maximal cytotoxic concentration (CC50) in series [2] (Table 3, HBV virus yield assay) of over 10000 nM.

`CCCC(CCC)C(=O)Nc1nc(Cl)nc2c1ccn2[C@@H]1O[C@H](CO)[C@@H](O)[C@@H]1F` [Compound 12d, N-(2-chloro-7-((2R,3S,4R,5R)-3-fluoro-4-hydroxy-5-(hydroxymethyl)tetrahydrofuran-2-yl)-7H-pyrrolo[2,3-d]pyrimidin-4-yl)-2-propylpentanamide]: the EC50 in series [1] (setting [5]) is 2120 nM. The 90% effect concentration (EC90) in series [1] (setting [7]) was over 10000 nM. The compound also yielded a CC50 in series [2] (setting [8]) of over 10000 nM.

Take `Nc1nc2c(ncn2COCCO)c(=O)[nH]1` [Acyclovir, acyclovir, reference compound]: in the series with HSV-1 Strain HF (Table 2), the IC50 amounted to 11400 nM and the “Selectivity Index (SI50) (TC50/IC50)” value is over 8.77. In series [3], this compound returned a cytotoxic concentration (CC50) of over 100000 nM.

As to `CC(C)COC(=O)[C@H](C)NP(=O)(OC[C@H]1O[C@@H](n2ccc3c(N)nc(Cl)nc32)[C@@H](F)[C@@H]1O)Oc1ccccc1` (single isomer, unassigned) [Compound 9d], in series [1] (HepG2 2.2.15), the response was half-maximal at 300 nM (EC50) and the concentration for an effect of 90% (EC90) was over 10000 nM. Besides, the CC50 in series [2] (Table 3, HBV virus yield assay) was over 10000 nM.
